The experiment relates to exiguolysin. The experiment is described as follows: Km determination of the fluorogenic substrate (Michaelis-Menten). The following applies: 25 mM Tris, 2.5 mM CaCl2, pH 7.0; substrate 0-200 µM; exiguolysin 5 units/well. The class given is biochemical, Exiguobacterium oxidotolerans. On the procedure:
The inhibition of protease activity was screened using a 20 × 20 library of N-alpha dipeptide mercaptoamide inhibitors as previously described by Cathcart et al., and the half-maximal inhibitory constant (Ki) values were determined. In order to determine Michaelis–Menten constant, Km, of the fluorogenic substrate, exiguolysin (previously purified by HIC, final concentration 5 units/well) was added to wells of a 96-well black microtitre plate (Nunc); the volume was adjusted to 75 µL in assay buffer (25 mM Tris, 2.5 mM CaCl2, pH 7.0), and fluorogenic substrate (25 µL) was added at concentrations of 0, 1, 10, 25, 50, 100 and 200 µM. Time-dependent hydrolysis of the fluorogenic substrate was measured (excitation/emission […] nm) every 30 s for 30 min. The Km is determined using the Michealis–Menten equation, by plotting the rate of substrate hydrolysis against substrate concentration.

*: point of attachment. Mca = COc1ccc2c(CC(=O)*)cc(=O)oc2c1

By Km is commonly meant the concentration of substrate that gives half-maximal velocity. As for “Mca-Lys-Pro-Leu-Gly-Leu-Dap-(Dnp)-Ala-Arg-NH2 (Mca-KPLGL-{Dap(Dnp)-Ala-Arg-NH2}) [fluorogenic substrate, fluorogenic matrix metalloprotease (MMP) substrate]”, the Michaelis-Menten constant (Km) is 14.2 µM.

The values are drawn from paper PMC11596557, “Exiguolysin, a Novel Thermolysin (M4) Peptidase from Exiguobacterium oxidotolerans” (Microorganisms, 2024).
